# According to patent US5968514A (priority 1994, dated 1999):
# Where “and” joins values, the source holds several entries; their conditions need not be identical. Equal entries are not always repeated. Entries after “also recorded” stand apart in the source; their conditions may differ. Where two headings read alike, the source gives them in different places. Ends that are not written are not given here.
# What was measured:
# [1] = tested on: class II MHC molecules on Raji cells; assay type: binding, human
# [2] = tested on: class II MHC molecules on Raji cells; assay type: binding, human; remark: listed apart in the source
# [3] = tested on: human peripheral mononuclear cells; assay type: cell-based
# [4] = tested on: class II MHC molecules (I-A^d and I-E^d) on A20 cells; assay type: binding, mouse
# [5] = tested on: class II MHC molecules on A20 cells; assay type: binding, mouse; settings: for IC50: read-out: concentration reducing 125I-MMTV ORF(76-119) binding to A20 cells by 50%
# [6] = tested on: class II-negative L cells; assay type: binding
# [7] = target: I-Aβ^b (60-90) peptide of class II MHC β-chain (Mus musculus, UniProt P14483); assay type: binding, murine
# [8] = tested on: human PMNC, APC and T cell fractions; assay type: cell-based
# Whole PMNC = assay type: cell-based, human
# I-Aβ^b (60-90) peptide of class II MHC β-chain, sequence (P14483 87-117): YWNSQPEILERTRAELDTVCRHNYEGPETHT
substance,measurement,setting,value
HIV-1 Nef(1-38): SEQ ID NO. 14 MGGKWSKSSVVGWPTVRERMRRAEPAADGVGAASRDLE,reduction of 125I-SEA binding to Raji cells,[1],slight inhibitory effects; also recorded: slightly reduced
HIV-1 Nef(31-65): SEQ ID NO. 15 GAASRDLEKHGAITSSNTAATNAACAWLEAQEEEE,reduction of 125I-SEA binding to Raji cells,[1],slight inhibitory effects; also recorded: slightly reduced
HIV-1 Nef(123-160): SEQ ID NO. 18 DWQNYTPGPGVRYPLTFGWCYKLVPVEPDKVEEANKGE,IC50,[2]; read-out: concentration reducing 125I-HIV-1 Nef(123-160) binding to Raji cells by 50%,30 µM
same,"SI ± sd, cells cultured with Anti-IgM + peptide",[3]; 96 h,14.1 ± 0.5
same,"SI ± sd, cells cultured with ConA + peptide",[3]; 96 h,4.5 ± 0.4
MMTV ORF(76-119): SEQ ID NO. 1 DSFNNSSVQDYNLNDSENSTFLLGQGPQPTSSYKPHRLCPSEIE,reduction of 125I-SEA binding to A20 cells,[4],approximately 63%
same,IC50,[4]; read-out: concentration reducing 125I-SEA binding to A20 cells by 50%,20 µM and ~20 µM
same,direct binding of 125I-labelled peptide to A20 cells,[5],did bind
same,IC50,[5],25 µM
same,binding of MMTV ORF(76-119) to class II-negative L cell line in comparison to A20 cells,[6],insignificant
same,competition with 125I-SEA and 125I-MMTV ORF(76-119) for binding to I-Aβ^b (60-90) peptide,[7],competed
NKGENTSLLHPVSLHGMDDPEREVLEWRFD [HIV-1 Nef(156-186)],"SI ± sd, cells cultured with ConA + peptide",[3],5.2 ± 1.6
Toxic shock syndrome toxin-1 [TSST-1],competition with 125I-MMTV ORF(76-119) for binding to A20 cells (in words),[5],did not compete
concanavalin A [ConA],"SI ± sd, stimulus alone",[3],6.0 ± 0.4
same,"SI ± sd, APC",[8],0.9 ± 0.1
same,"SI ± sd, APC + T cells",[8],40.7 ± 4.3
same,IFNγ at 24 H,Whole PMNC,10
same,IFNγ at 48 h,Whole PMNC,350 ± 71
same,IFNγ at 72 h,Whole PMNC,400 ± 141
same,IFNγ at 96 h,Whole PMNC,150 ± 71
same,level of IFNγ production (comparison in words),Whole PMNC,levels much lower than that of Nef or SEA
staphylococcal enterotoxin A [SEA],effectiveness as competitor of 125I-SEA binding relative to MMTV ORF(76-119),[4],20 times
same,competition with 125I-MMTV ORF(76-119) for binding to A20 cells (in words),[5],a more potent competitor
same,IC50,[5],1.8 µM
same,competition with 125I-SEA and 125I-MMTV ORF(76-119) for binding to I-Aβ^b (60-90) peptide,[7],competed
same,IC50,[1]; read-out: concentration reducing 125I-SEA binding to Raji cells by 50%,0.2 µM
same,inhibition of 125I-HIV-1 Nef(123-160) binding to Raji cells (in words),[2],"binding as well as SEE, but it was more effective than SEC1 or SEB"
same,"SI ± sd, stimulus alone",[3],17.6 ± 3.3
same,"SI ± sd, APC",[8],1.6 ± 0.2
same,ratio of the stimulation index for whole PMNC versus reconstituted APC/T cells,[8],~6.78
same,IFNγ at 24 H,Whole PMNC,55 ± 7
same,IFNγ at 48 h,Whole PMNC,550 ± 141
same,IFNγ at 72 h,Whole PMNC,3000
same,IFNγ at 96 h,Whole PMNC,2000
staphylococcal enterotoxin B [SEB],competition with 125I-MMTV ORF(76-119) for binding to A20 cells (in words),[5],competed less effectively than SEA
same,inhibition of 125I-HIV-1 Nef(123-160) binding to Raji cells (in words),[2],it was more effective than SEC1 or SEB
